Experiments:
Test in all cases: relative viability (nuclei count vs DMSO), 5 days (fraction); higher = more cells survive
[1] = compound: C(C(=O)C(=O)O)Br [Bromopyruvate] + C[C@@H](Oc1cc(-c2cnn(C3CCNCC3)c2)cnc1N)c1c(Cl)ccc(F)c1Cl [Crizotinib] (partner 1 µM)
In short: (§1)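 Nuclei were stained with Hoechst during a one-step fixation (final 0.05% Triton X-100, 1% formaldehyde, 1 ug/ml Hoechst) carried out 5 days after dosing, then counted on 4× images. The cells, lung cancer lines in 1536-well plates, had been dosed by pin tool the day after seeding with one drug alone or a fixed anchor-drug dose plus five library-drug doses (not always all listed) in √10 steps. Relative viability is the nuclei count in treated wells divided by that in vehicle wells, and each value is the median of duplicate plates.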

[2] = compound: C(C(=O)C(=O)O)Br [Bromopyruvate] + C[C@]1(O)C[C@@H](c2nc(-c3ccc4ccc(-c5ccccc5)nc4c3)c3c(N)nccn32)C1 [Linsitinib] (partner 1 µM)
In short: as §1

[3] = compound: CC(O)(CS(=O)(=O)c1ccc(F)cc1)C(=O)Nc1ccc(C#N)c(C(F)(F)F)c1 [Bicalutamide] + Nc1ncn([C@H]2C[C@H](O)[C@@H](CO)O2)c(=O)n1 [Decitabine] (partner 2 µM)
In short: as §1

[4] = compound: CC(O)(CS(=O)(=O)c1ccc(F)cc1)C(=O)Nc1ccc(C#N)c(C(F)(F)F)c1 [Bicalutamide] + CC(=O)c1c(C)c2cnc(Nc3ccc(N4CCNCC4)cn3)nc2n(C2CCCC2)c1=O [Palbociclib] (partner 0.5 µM)
In short: as §1

Cell Line | relative viability ([1]; first compound 1 µM) | relative viability ([1]; first compound 3.162 µM) | relative viability ([1]; first compound 10 µM) | relative viability ([1]; first compound 31.62 µM) | relative viability ([1]; first compound 100 µM) | relative viability ([2]; first compound 1 µM) | relative viability ([2]; first compound 3.162 µM) | relative viability ([2]; first compound 10 µM) | relative viability ([2]; first compound 31.62 µM) | relative viability ([2]; first compound 100 µM) | relative viability ([3]; first compound 0.08 µM) | relative viability ([3]; first compound 0.253 µM) | relative viability ([3]; first compound 0.8 µM) | relative viability ([3]; first compound 2.53 µM) | relative viability ([4]; first compound 0.08 µM) | relative viability ([4]; first compound 0.253 µM) | relative viability ([4]; first compound 0.8 µM) | relative viability ([4]; first compound 2.53 µM)
NCI-H2347 | 0.753 | 0.602 | 0.951 | 0.595 | 0.684 | 0.995 | 0.989 | 1.21 | 0.756 | 1.08 | 0.583 | 0.651 | 0.628 | 0.634 | 0.473 | 0.468 | 0.446 | 0.399
NCI-H2405 | 0.79 | 0.841 | 1.04 | 0.696 | 0.907 | 0.938 | 0.948 | 1.11 | 0.727 | 0.907 | 0.708 | 0.689 | 0.787 | 0.716 | 0.555 | 0.506 | 0.581 | 0.486
NCI-H3122 | 0.252 | 0.263 | 0.304 | 0.289 | 0.248 | 1.02 | 1.02 | 1.03 | 0.987 | 0.941 | 0.4 | 0.45 | 0.449 | 0.455 | 0.193 | 0.183 | 0.201 | 0.181
PC-3 [JPC-3] | 1.03 | 1 | 0.944 | 1.01 | 0.983 | 1.02 | 0.975 | 0.943 | 0.914 | 1.01 | 0.791 | 0.88 | 0.797 | 0.873 | 0.556 | 0.576 | 0.567 | 0.552
